Data taken from ChEMBL document CHEMBL4393651, “Class 1 PI3K Clinical Candidates and Recent Inhibitor Design Strategies: A Medicinal Chemistry Perspective” (J Med Chem, 2019).
Values after ≈ are worked out from the molar mass of the structure shown. Values belong to the compound of their own block, whether it stands above or below them.

Columns and labels:
[1] = target: Phosphatidylinositol 4,5-bisphosphate 3-kinase catalytic subunit gamma isoform (Homo sapiens, UniProt P48736); experiment: Inhibition of PI3Kgamma (unknown origin)
Phosphatidylinositol 4,5-bisphosphate 3-kinase catalytic subunit gamma isoform, sequence (P48736 whole entry, canonical isoform): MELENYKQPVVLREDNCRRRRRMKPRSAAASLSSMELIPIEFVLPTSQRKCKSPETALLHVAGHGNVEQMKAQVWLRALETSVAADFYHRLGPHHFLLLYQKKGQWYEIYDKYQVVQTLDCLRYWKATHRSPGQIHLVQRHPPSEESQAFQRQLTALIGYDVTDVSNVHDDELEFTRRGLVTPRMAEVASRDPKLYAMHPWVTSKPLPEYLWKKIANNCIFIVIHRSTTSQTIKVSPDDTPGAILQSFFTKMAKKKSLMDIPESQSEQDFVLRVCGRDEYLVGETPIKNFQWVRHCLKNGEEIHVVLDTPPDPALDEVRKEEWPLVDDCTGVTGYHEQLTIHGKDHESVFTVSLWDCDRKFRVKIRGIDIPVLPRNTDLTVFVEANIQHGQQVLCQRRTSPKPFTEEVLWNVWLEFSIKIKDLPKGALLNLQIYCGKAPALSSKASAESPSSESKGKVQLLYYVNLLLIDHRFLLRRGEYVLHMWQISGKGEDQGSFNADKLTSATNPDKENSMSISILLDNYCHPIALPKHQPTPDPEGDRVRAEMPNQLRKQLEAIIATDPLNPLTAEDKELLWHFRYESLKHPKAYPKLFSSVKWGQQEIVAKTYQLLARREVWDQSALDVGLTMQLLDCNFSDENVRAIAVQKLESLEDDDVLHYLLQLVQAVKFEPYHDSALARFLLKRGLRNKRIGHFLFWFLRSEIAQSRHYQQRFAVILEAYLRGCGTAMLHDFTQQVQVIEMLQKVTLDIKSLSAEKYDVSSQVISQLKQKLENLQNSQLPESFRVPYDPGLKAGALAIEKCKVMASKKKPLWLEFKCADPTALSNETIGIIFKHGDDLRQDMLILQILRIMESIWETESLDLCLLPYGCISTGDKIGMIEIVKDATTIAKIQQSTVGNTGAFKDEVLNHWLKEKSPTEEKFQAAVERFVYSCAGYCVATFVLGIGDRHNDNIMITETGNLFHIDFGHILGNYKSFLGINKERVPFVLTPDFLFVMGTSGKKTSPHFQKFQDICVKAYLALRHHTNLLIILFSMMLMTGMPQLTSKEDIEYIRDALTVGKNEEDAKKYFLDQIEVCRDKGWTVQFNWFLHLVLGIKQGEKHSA

[2] = Inhibition of PI3K in human lung parenchyma cells assessed as reduction in IFNgamma secretion
[3] = target: T1, Phosphatidylinositol 4,5-bisphosphate 3-kinase catalytic subunit beta isoform (Homo sapiens, UniProt P42338); experiment: Inhibition of PI3Kbeta (unknown origin)
T1 sequence (P42338 whole entry, canonical isoform): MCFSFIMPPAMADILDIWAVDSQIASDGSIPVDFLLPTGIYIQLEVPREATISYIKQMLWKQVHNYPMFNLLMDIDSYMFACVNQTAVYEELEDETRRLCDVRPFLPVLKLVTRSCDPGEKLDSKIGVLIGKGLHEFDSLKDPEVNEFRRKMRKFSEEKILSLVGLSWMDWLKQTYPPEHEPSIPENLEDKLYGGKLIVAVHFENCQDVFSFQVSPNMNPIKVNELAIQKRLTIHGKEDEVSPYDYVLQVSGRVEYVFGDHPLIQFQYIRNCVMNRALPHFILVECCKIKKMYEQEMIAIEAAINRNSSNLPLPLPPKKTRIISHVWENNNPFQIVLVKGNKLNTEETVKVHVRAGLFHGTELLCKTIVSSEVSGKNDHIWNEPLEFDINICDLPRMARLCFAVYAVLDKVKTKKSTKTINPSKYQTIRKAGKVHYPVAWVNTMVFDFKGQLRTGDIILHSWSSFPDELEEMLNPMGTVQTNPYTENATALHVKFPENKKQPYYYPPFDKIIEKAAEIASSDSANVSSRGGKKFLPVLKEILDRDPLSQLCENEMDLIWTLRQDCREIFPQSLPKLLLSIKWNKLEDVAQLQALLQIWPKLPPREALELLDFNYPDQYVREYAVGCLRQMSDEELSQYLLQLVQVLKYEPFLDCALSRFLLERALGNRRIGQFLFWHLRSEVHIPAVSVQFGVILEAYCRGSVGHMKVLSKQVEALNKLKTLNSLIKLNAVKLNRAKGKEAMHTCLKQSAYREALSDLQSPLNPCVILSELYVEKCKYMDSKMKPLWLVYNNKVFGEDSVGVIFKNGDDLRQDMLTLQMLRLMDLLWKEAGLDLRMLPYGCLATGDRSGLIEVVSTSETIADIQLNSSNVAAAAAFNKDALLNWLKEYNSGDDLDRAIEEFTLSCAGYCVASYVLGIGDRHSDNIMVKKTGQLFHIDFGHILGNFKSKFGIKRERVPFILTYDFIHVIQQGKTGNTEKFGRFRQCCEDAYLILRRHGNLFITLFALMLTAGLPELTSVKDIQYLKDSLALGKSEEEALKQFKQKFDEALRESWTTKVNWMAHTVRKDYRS

[4] = Inhibition of PI3K in human PBMC assessed as reduction in IFNgamma secretion
[5] = target: Phosphatidylinositol 4,5-bisphosphate 3-kinase catalytic subunit alpha isoform (Homo sapiens, UniProt P42336); experiment: Inhibition of PI3Kalpha (unknown origin)
Phosphatidylinositol 4,5-bisphosphate 3-kinase catalytic subunit alpha isoform, sequence (P42336 whole entry, canonical isoform): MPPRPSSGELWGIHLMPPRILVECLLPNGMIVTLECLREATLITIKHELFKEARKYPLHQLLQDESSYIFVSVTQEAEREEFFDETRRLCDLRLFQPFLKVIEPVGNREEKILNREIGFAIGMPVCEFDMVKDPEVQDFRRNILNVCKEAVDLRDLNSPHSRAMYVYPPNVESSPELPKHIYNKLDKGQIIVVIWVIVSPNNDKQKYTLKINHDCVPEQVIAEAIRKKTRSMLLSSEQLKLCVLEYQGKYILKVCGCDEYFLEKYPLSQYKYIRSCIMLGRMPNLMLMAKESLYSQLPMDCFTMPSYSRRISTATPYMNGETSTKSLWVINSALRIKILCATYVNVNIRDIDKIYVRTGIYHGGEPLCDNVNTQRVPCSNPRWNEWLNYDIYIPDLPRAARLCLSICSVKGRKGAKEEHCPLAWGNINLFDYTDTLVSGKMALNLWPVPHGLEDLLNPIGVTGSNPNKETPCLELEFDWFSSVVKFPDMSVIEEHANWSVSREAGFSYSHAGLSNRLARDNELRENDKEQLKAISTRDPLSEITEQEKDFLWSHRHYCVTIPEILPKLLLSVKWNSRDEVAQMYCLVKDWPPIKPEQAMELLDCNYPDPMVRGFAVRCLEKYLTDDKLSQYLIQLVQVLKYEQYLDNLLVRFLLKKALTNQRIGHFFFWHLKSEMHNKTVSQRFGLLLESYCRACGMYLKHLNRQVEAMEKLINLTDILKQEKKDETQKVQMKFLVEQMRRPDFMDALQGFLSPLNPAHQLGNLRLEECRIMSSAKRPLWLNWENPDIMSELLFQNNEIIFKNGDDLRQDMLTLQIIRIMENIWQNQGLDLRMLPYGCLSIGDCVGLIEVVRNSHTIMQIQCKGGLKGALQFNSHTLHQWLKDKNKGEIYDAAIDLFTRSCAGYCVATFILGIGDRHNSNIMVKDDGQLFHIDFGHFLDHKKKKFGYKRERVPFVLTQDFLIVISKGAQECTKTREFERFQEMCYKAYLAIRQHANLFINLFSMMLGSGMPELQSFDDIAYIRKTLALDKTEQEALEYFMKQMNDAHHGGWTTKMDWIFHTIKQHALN

[6] = species: Rattus norvegicus; experiment: Antiinflammatory activity in Brown Norway rat acute OVA model of Th2 driven lung inflammation assessed as protection against eosinophil recruitment; type: functional
[7] = Inhibition of PI3K in human lung parenchyma cells assessed as reduction in IL2 secretion
[8] = target: T1, Phosphatidylinositol 4,5-bisphosphate 3-kinase catalytic subunit beta isoform; experiment: Inhibition of N-terminal His-tagged truncated human PI3Kbeta (deltaN 1 to 108 residues) after 2 hrs in presence of [33P]ATP by BetaPlate liquid scintillation counting analysis
[9] = target: T2, Phosphatidylinositol 4,5-bisphosphate 3-kinase catalytic subunit delta isoform (Homo sapiens, UniProt O00329); experiment: Inhibition of PI3Kdelta (unknown origin)
T2 sequence (O00329 whole entry): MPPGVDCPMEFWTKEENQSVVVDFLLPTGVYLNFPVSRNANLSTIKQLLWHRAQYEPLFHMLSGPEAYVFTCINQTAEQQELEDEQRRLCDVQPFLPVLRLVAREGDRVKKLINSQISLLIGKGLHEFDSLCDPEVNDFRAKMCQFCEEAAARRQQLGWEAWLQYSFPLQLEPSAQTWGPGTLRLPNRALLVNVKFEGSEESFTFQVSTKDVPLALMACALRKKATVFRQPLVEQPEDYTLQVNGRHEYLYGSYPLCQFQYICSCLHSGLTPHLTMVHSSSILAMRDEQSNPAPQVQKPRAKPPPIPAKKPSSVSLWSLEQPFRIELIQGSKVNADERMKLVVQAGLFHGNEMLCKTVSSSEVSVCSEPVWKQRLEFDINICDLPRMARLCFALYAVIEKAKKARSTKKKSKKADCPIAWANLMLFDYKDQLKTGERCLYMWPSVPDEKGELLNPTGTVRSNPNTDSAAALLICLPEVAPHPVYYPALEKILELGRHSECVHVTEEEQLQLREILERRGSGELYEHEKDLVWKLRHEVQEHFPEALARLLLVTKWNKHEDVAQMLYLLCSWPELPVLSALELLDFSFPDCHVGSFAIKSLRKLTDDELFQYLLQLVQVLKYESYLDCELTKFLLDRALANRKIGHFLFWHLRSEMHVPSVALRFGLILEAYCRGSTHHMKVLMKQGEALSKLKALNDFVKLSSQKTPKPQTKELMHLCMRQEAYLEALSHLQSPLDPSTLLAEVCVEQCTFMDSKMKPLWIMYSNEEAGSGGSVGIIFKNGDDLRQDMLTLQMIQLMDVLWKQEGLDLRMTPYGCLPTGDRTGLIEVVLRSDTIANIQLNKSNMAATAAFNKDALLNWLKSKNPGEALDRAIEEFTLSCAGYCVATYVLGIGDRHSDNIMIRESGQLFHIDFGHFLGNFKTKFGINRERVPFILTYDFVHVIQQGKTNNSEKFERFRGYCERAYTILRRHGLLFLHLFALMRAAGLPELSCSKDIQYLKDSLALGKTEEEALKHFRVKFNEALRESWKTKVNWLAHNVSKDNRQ

[10] = Aqueous solubility of the compound at pH 7.4; type: physicochemical
[11] = Oral bioavailability in rat; type: ADME, organism-based; conditions: in vivo

SMILES: COc1ncc(-c2cc(-c3ncc(CN4C[C@@H](C)O[C@@H](C)C4)o3)c3cn[nH]c3c2)cc1NS(C)(=O)=O
Ki [1]: 501 nM
IC50 [2]: 2 nM
Ki [3]: 631 nM
pKi [4]: 9.2
Ki [5]: 501 nM
ED50 [6]: 0.035 mg/kg
IC50 [7]: 3.16 nM

SMILES: O=C(NC1=Nc2ccccc2C2=NCCN12)c1cccnc1
IC50 [8]: 1 nM

SMILES: Cc1nc(C(=O)Nc2cc(-c3cnc(Cl)c(NS(=O)(=O)c4ccccc4)c3)cc3[nH]ncc23)cs1
IC50 [1]: 50.1 nM
IC50 [9]: 2 nM
IC50 [3]: 1000 nM
IC50 [5]: 316 nM

More lines, now with the values ahead:

IC50 [9]: 0.794 nM
solubility [10]: 20 µg/mL (≈ 37 µM)
SMILES: Cc1nnc2n1[C@@H]1CCN(Cc3cc4nc(-c5cccc6[nH]ccc56)nc(N5CCOCC5)c4s3)C[C@@H]1CC2

bioavailability [11]: < 2%
SMILES: CC(C)N1CCN(Cc2cnc(-c3cc(-c4cccc5[nH]ccc45)cc4[nH]ncc34)o2)CC1 [NEMIRALISIB]
